Test results from article PMC3984256, “A PCNA-Derived Cell Permeable Peptide Selectively Inhibits Neuroblastoma Cell Growth” (PLoS ONE, 2014).
Where a SMILES comes first, the peptide text is derived from it. [ ]: non-standard residue; d: D form.

What was measured:
[1] = test system: PCNA and p21 interaction; experiment: PCNA and p21 interaction in vitro; assay type: binding; details: data not shown
[2] = test system: synchronized cells; experiment: Cell cycle analysis of synchronized cells within 6 h (data not shown); assay type: cell-based; details: 6 h after mimosine release
Procedure: (§1) Cells were seeded at 1×10^5/ml. Once attached, cells were treated with or without R9-caPep for 48 hours. Cells were fixed in 60% ethanol and stained with propidium iodide (PI). The cellular PI fluorescence intensity was determined by flow cytometry. The flow cytometry data were analyzed by the FlowJo program to model various cell populations.
Cells were seeded at 1×10^5/ml onto a chamber slide and were allowed to attach overnight. To analyze the interaction of PCNA with FEN1, LIGI, or Pol ä, we first synchronize cells at the G1/S boundary. The synchronization is achieved by starving cells in medium containing 0.25% FBS for 24 h. Cells were further cultured in the complete medium containing 400 µM of mimosine for 24 h. To release cells into S phase, cells were washed and incubated in mimosine-free medium containing 30 µM R9-caPep or R9-srbPep for 6 h. We pre-determined that the majority of cells were in the S-phase 6 h after mimosine was removed (data not shown). Cells were fixed in ice-cold methanol:acetone (50%:50%) for 10 min or in 4% paraformaldehyde for 20 min at room temperature. Cells were incubated with a goat polyclonal anti-PCNA antibody (Santa Cruz) and a mouse monoclonal anti-FEN1 antibody (Santa Cruz), a mouse anti-POLD3 antibody (Sigma, St. Louis, MO), or a mouse anti-LIGI antibody (Abcam, Cambridge, MA) for 1 h at room temperature. […]

[3] = test system: human peripheral blood mononuclear cells (PBMC); assay type: cell-based; details: 72 h
Procedure: (§2) The human NB cell lines, SK-N-DZ, SK-N-BE(2)c, SK-N-AS, SK-N-SH, and SK-N-FI were obtained from the American Type Culture Collection (Rockville, MD). Cells were maintained in DMEM with 10% fetal bovine serum (FBS), 100 units/ml penicillin, and 100 µg/ml streptomycin in the presence of 5% CO2 at 37°C. Human PBMCs from a healthy donor were purchased from Sanguine BioSciences (Valencia, CA) and grown in RPMI1640 with10% FBS, 100 units/ml penicillin, 100 µg/ml streptomycin, and 10 ng/ml IL-2 in the presence of 5% CO2 at 37°C. Human embryonic progenitor cell line 7SM0032 was acquired from Millipore (Billerica, MA) and grown in the hEPM-1 Media Kit purchased from the same company.
(§3) To measure cell growth, cells were seeded at 3×10^4/ml. After being allowed to attach overnight, cells were treated with various concentrations of the peptides for 72 h. Cell growth was measured by the CellTitor-Glo assay (Promega, Madison, WI) according to manufacturer's instruction. To measure apoptosis, cells were seeded at 1×10^5/ml onto a chamber slide. Once attached, cells were treated with the peptides for 48 h. Cells were fixed and analyzed by a TUNEL assay using the TMR red in situ cell death detection kit (Roche Diagnostics, Indianapolis, IN).

[4] = test system: human neural crest stem cells (7SM0032); assay type: cell-based; details: 72 h
Procedure: as §2, §3

[5] = test system: SK-N-BE(2)c cells; experiment: Cell cycle analysis by PI flow cytometry, SK-N-BE(2)c; assay type: cell-based, human
Procedure: as §1

[6] = test system: SK-N-BE(2)c cells, DNA synthesis; experiment: BrdU incorporation assay; assay type: cell-based, human; details: peptide 7.5 h then 10 µM BrdU 30 min, vs R9-srbPep, triplicates
Procedure: SK-N-BE(2)c cells were treated with the peptides for 7.5 h and then incubated in 10 ìmol/L BrdU for an additional 30 min in the continuous presence of the peptides. Cells were detached with trypsin and fixed in Cytofix/Cytoperm buffer according to the manufacturer's instructions (BD Bioscience, San Jose, CA). Fixed cells were treated with DNase to expose incorporated BrdU and stained with FITC-conjugated anti-BrdU antibody (BD Bioscience) for 1 h at room temperature. Samples were analyzed by flow cytometry to quantify the amount of BrdU incorporation. Percentages of FITC-positive cells were determined by analysis with the FlowJo software. Statistical analysis was conducted using a two-tailed t-test.

[7] = test system: ãH2A.X level; experiment: γH2A.X western blot after γ-irradiation; assay type: cell-based; details: 30 µM peptide, 2 h pretreatment, 5 Gy
Procedure: To study DNA damage and repair, attached cells were pretreated with the peptides for 2 h and were then ã-irradiated (5 Gy). After irradiation, cells were cultured in the presence of the peptides for the indicated time. For analyzing ãH2A.X foci formation, cells were fixed in a solution of methanol and acetone (70%:30% v/v) for 15 min at −20°C. The slides were air-dried for storage and rehydrated in PBS prior to immunostaining. Cells were stained by a mouse monoclonal antibody specific to ãH2A.X (Millipore, Billerica, MA) followed by an Alexa Fluor 488 conjugated anti-mouse IgG antibody. For analyzing Rad51 foci formation, cells were fixed in PBS buffered 4% paraformaldehyde at room temperature for 15 min. After being washed twice by PBS, cells were permeabilized in PBS containing 0.5% triton for 15 min on ice. The fixed and permeabilized cells were stained with a rabbit polyclonal antibody raised against the human Rad51 (Santa Cruz) followed by an Alexa Fluor 488 conjugated anti-rabbit IgG antibody. Stained cells were visualized and imaged by a confocal microscope.
Cell extracts were prepared by dissolving cell pellets directly into the Laemmli sample buffer and resolved in a 4–12% SDS polyacrylamide gel. Resolved proteins were blotted onto a nitrocellulose membrane. The membrane was blocked with 5% nonfat dry milk and incubated with an antibody specific to ãH2A.X (Millipore), total H2A.X (Cell Signaling Technology, Danvers, MA), MYCN (Cell Signaling Technology), or actin (Sigma) in the blocking buffer. After incubation with peroxidase-conjugated secondary antibodies, the protein of interest was detected using an ECL kit purchased from GE Healthcare.

For `CC[C@H](C)[C@H](NC(=O)CNC(=O)[C@H](CC(C)C)NC(=O)[C@H](CS)NC(=O)[C@H](CS)NC(=O)[C@@H](CCCNC(=N)N)NC(=O)[C@@H](CCCNC(=N)N)NC(=O)[C@@H](CCCNC(=N)N)NC(=O)[C@@H](CCCNC(=N)N)NC(=O)[C@@H](CCCNC(=N)N)NC(=O)[C@@H](CCCNC(=N)N)NC(=O)[C@@H](CCCNC(=N)N)NC(=O)[C@@H](CCCNC(=N)N)NC(=O)[C@H](N)CCCNC(=N)N)C(=O)N1CCC[C@H]1C(=O)N[C@@H](CCC(=O)O)C(=O)N[C@@H](CCC(N)=O)C(=O)N[C@@H](CCC(=O)O)C(=O)N[C@@H](Cc1ccc(O)cc1)C(=O)O` [R9-caPep] (H-[dR][dR][dR][dR][dR][dR][dR][dR][dR]CCLGIPEQEY-OH; N-terminus and C-terminus assumed), which “effect on PCNA and p21 interaction” value [1] is on record?
Its value is “did not block PCNA and p21 interaction in vitro”.

And the “cell cycle progress within 6 h” value [2]?
Its value is “neither peptide significantly affected cell cycle progress within 6 h”.

What about the IC50 [3] of the same compound?
Its IC50 is 98 µM.

What about the IC50 [4] of the same compound?
The IC50 was > 100 µM.

And the cell cycle arrest ([5]; NB cells (SK-N-BE(2)c), 48 h, 20 or 40 µM)?
The cell cycle arrest was “caused S-phase arrest in NB cells”.

And the “apoptosis: sub-G1 cell population” value ([5]; SK-N-BE(2)c, 40 µM, 48 h)?
Its value is “rise of a sub-G1 cell population”.

And the “relative abundance of cells in S-phase, longer treatment” value ([5]; treatment longer than 6 h (Fig. 3c, 48 h))?
The value was “increased the relative abundance of cells in S-phase”.

What about the “percentage of BrdU-positive cells” value [6] of the same compound?
Its value is “significant reduction in the percentage of BrdU-positive cells”.

What about the “ãH2A.X level within 30 min after irradiation” value [7] of the same compound?
Its value is “increased within 30 min following ã-irradiation in cells treated with either peptide”.

What about the “ãH2A.X level 48 h after irradiation” value ([7]; 48 h) of the same compound?
The value was “remained elevated”.
